What all share (assay): NCI tumour cell line growth inhibition, 48 h
Assay [1] concerns M14 melanoma.
Assay [2] has as its system OVCAR-5 ovarian.
Assay [3] deals with MDA-MB-231 breast.
For assay [4], the system named is NCI-H23 lung.
The subject of assay [5] is MCF7 breast.
In assay [6] the test system is IGROV1 ovarian.
Assay [7] concerns HS 578T breast.
The subject of assay [8] is A498 renal.
The test system of assay [9] is UACC-257 melanoma.
The test system of assay [10] is CCRF-CEM leukemia.

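Test compounds were applied to cells in 96-well plates for 48 hours at 5 doses. TGI is the concentration that stops growth completely.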

As to `O=[N+]([O-])/C=C/c1cn(CCCCCn2cc(/C=C/[N+](=O)[O-])c3ccccc32)c2ccccc12`, the TGI turned out to be 15.1 µM in assay [1]; 32.3 µM in assay [2]; 4.28 µM in assay [3]; 16 µM in assay [4]; 1.62 µM in assay [5]; 5.81 µM in assay [6]. The TGI in assay [7] was 7.99 µM; in assay [8] it was 3.86 µM; in [9], 13.8 µM.

Consider `O=C1/C(=C\c2cccc(Oc3ccccc3)c2)SC(c2ccccc2)N1c1cccc([N+](=O)[O-])c1` (stereo not drawn), for which the TGI in assay [10] was 81.2 µM; in [1] it was more than 100 µM; in assay [2] it was more than 100 µM; in assay [3], more than 100 µM; in assay [4], more than 100 µM; in assay [5], more than 100 µM. In addition, the TGI in assay [7], in [8] and in assay [9] was more than 100 µM each time.

Consider `COC(=O)C(C(=O)C(=O)NC1Nc2ccc(C)cc2S1)c1nc2ccc(Cl)cc2[nH]c1=O` (stereo not drawn), for which the TGI in assay [2], in assay [3], in assay [4], in assay [5], in [6] and in assay [7] was more than 100 µM throughout. In addition, the TGI in [8] and in assay [9] was more than 100 µM throughout.

Regarding `CNc1ccc(Cl)cc1S(=O)(=O)c1ccccc1[N+](=O)[O-]`, the TGI in [10], in assay [1], in assay [2], in assay [3], in assay [4] and in assay [5] was more than 100 µM throughout. Further, the TGI in assay [6], in assay [7] and in [8] was more than 100 µM each time.

Consider `CC(C)(C)OC(=O)N1CCc2c(n(C/C=C/c3ccccc3)[nH]c2=O)C1`, for which the TGI in [10], in assay [1], in assay [3], in [4], in [5] and in assay [6] was more than 100 µM each time. Moreover, the TGI in assay [7], in assay [8] and in [9] was more than 100 µM in each case.

In the case of `O=S(=O)(O)C1CCC(O)C2[N-]CCCC21.O=S(=O)(O)C1CCC(O)C2[N-]CCCC21.[Zn+2]` (stereo not drawn), the TGI in assay [1], in [2], in [3], in assay [5], in assay [6] and in assay [7] was more than 100 µM each time. Further, the TGI in assay [8] and in assay [9] was more than 100 µM throughout.

As to `NC(=O)C1=CC2C3C=CC2(O)C(=O)OC3O1` (stereo not drawn), the TGI in assay [10] was 9.8 µM; in assay [1] it was 13.2 µM; in assay [2], more than 64.5 µM; in assay [3] it was 32 µM; in assay [4] it was 9.47 µM; in assay [5], 18.5 µM. The TGI in assay [6] stood at 11.7 µM; in [7], 5.57 µM; in assay [8], 59.3 µM; in assay [9], 7.44 µM.

Turning to `CCCCCCOP(=O)(OCCCCCC)OC(C(=O)OC)C(F)(F)F` (stereo not drawn), the TGI in assay [10], in [1], in assay [2], in assay [3], in assay [4] and in [5] was more than 100 µM each time. Besides, the TGI in [6], in assay [7] and in assay [9] was more than 100 µM each time.

In the case of `CCCCCCCCCCCCCCCCOCC(Cl)COP(=O)(O)OP(=O)(O)OCC1OC(n2cnc3c(N)ncnc32)C(O)C1O` (stereo not drawn), the TGI in assay [10], in [1], in assay [2], in assay [3], in assay [4] and in [5] was more than 100 µM throughout. Further, the TGI in assay [6], in assay [7], in assay [8] and in assay [9] was more than 100 µM throughout.

Regarding `CC(C)C1CC(CO)(CNc2cc(Cl)nc(N)n2)C1` (stereo not drawn), the TGI in assay [10], in assay [2], in assay [3], in assay [5], in assay [6] and in [7] was more than 100 µM throughout. The TGI was 65.9 µM in [8] and more than 100 µM in [9].

As for `C=C1CC(Cn2cc(Br)c(=O)[nH]c2=O)(c2ccc(-c3ccccc3)cc2)OC1=O` (stereo not drawn), the TGI in assay [10] worked out at 0.712 µM; in assay [1], 3.12 µM; in assay [2], 15.6 µM; in assay [3] it was 9 µM; in assay [4], 3.4 µM; in assay [5] it was 1.75 µM. Further, the TGI in assay [6] was 2.96 µM; in [7] it was more than 20.5 µM; in assay [8], 2.33 µM; in assay [9], 2.53 µM.

With `CC12CC(c3ccccc3O1)C(C(=O)Nc1cccc(F)c1)C(=O)N2` (stereo not drawn), the TGI is more than 100 µM in assay [10]; more than 100 µM in assay [1]; more than 100 µM in assay [2]; 79.3 µM in assay [4]; more than 100 µM in assay [5]; more than 100 µM in assay [6]. The TGI in [7], in assay [8] and in [9] was more than 100 µM throughout.

Consider `c1ccc([P+](c2ccccc2)(c2ccccc2)c2ccc([P+](c3ccccc3)(c3ccccc3)c3ccccc3)cc2)cc1`, for which the TGI in [10], in assay [1], in assay [2], in assay [3], in assay [4] and in [5] was more than 100 µM in each case. For the same compound, the TGI in assay [6], in [7], in assay [8] and in assay [9] was more than 100 µM throughout.

Consider `CC(=O)CC1(C)OC(N)=C(C#N)C1(C#N)C#N` (stereo not drawn), for which the TGI in [10], in assay [1], in assay [2], in assay [3], in assay [4] and in assay [5] was more than 100 µM in each case. The TGI in assay [6], in assay [7], in assay [8] and in assay [9] was more than 100 µM throughout.
